Reference: PMC2632993, “Conformational changes in α7 acetylcholine receptors underlying allosteric modulation by divalent cations” (BMC Pharmacology, 2009)

Columns and labels:
Format in all cases: cell-based, chick
[1] = target: T1, α7 AChR M^40C mutant (C^115A/L^247T background) (Gallus gallus, UniProt P22770, C138A/L270T/M63C)
T1 construct: expressed in transfected cells; host or cells: Xenopus laevis oocytes injected with cRNA
Description: A cDNA clone of the chick α7 receptor containing two mutations (C^115A, L^247T) was used as the parental phenotype for mutations described in this study. We mutated the lone unpaired cysteine in the extracellular domain (C^115) to alanine to allow for a more straightforward interpretation of thiol modification experiments. […] We included the mutation of leucine 247 in the M2 transmembrane domain (L^247T; L9'T) because of its large current amplitudes and non-desensitizing kinetics compared to wild-type α7 receptors. […] All mutations were introduced by site-directed mutagenesis using the QuikChange method (Agilent Technologies, La Jolla, CA) as described previously, and were confirmed by DNA sequencing. […]
Oocytes were superfused in normal extracellular solution containing a reduced Ca^2+ concentration (ESLC; 96 mM NaCl, 2 mM KCl, 1 mM MgCl2, 0.1 mM CaCl2, and 10 mM HEPES, pH 7.5). […] Currents were recorded at a constant holding potential of -60 mV. […]
(§1) MTSEA was prepared daily in distilled water and stored on ice. […] Kinetic data were analyzed as described previously; rate data were fit to a single exponential to extract a pseudo-first order rate constant; this was divided by the MTSEA concentration used to determine the second order rate constant for thiol modification.

[2] = target: α7 AChR M^40C/E^172Q mutant (C^115A/L^247T background) (Gallus gallus, UniProt P22770, C138A/E195Q/L270T/M63C); assay: ACh dose-response, two-electrode voltage clamp in Xenopus oocytes; conditions: co-expression with human RIC-3
Description: (§2) A cDNA clone of the chick α7 receptor containing two mutations (C^115A, L^247T) was used as the parental phenotype for mutations described in this study. We mutated the lone unpaired cysteine in the extracellular domain (C^115) to alanine to allow for a more straightforward interpretation of thiol modification experiments. […] We included the mutation of leucine 247 in the M2 transmembrane domain (L^247T; L9'T) because of its large current amplitudes and non-desensitizing kinetics compared to wild-type α7 receptors. […] All mutations were introduced by site-directed mutagenesis using the QuikChange method (Agilent Technologies, La Jolla, CA) as described previously, and were confirmed by DNA sequencing.
(§3) cRNA was prepared using the T7 RNA polymerase and mMessage mMachine kit as described by the manufacturer (Applied Biosystems, Austin, TX). Oocytes were surgically removed and prepared from female Xenopus laevis in accordance with UNC Institutional Animal Care and Use Committee guidelines. Oocytes were injected with 20 ng of cRNA and incubated at 18°C in ND96 (96 mM NaCl, 2 mM KCl, 1 mM MgCl2, 1.8 mM CaCl2, 5 mM Na pyruvate, 50 μg/ml gentamicin, 5 mM HEPES, pH 7.5) for 2–5 days before use. For some mutants we co-injected cRNA encoding the human RIC-3 [38], a protein shown to enhance expression of α7 AChRs in both mammalian cells and oocytes.
(§4) Oocytes were superfused in normal extracellular solution containing a reduced Ca^2+ concentration (ESLC; 96 mM NaCl, 2 mM KCl, 1 mM MgCl2, 0.1 mM CaCl2, and 10 mM HEPES, pH 7.5). […] Two-electrode voltage clamp was performed with a GeneClamp 500B controlled by pCLAMP8 software (Molecular Devices, Sunnyvale, CA). Electrodes were filled with 3 M KCl contacting Ag-AgCl wires and had resistances of 0.5 to 2.0 MΩ. Currents were recorded at a constant holding potential of -60 mV. Currents were low pass filtered at 50 Hz and sampled at 100 Hz. Agonist dose-response curves were obtained as described previously, and data were fit to the Hill equation using Origin software (Microcal Software, Northampton, MA).
as §1, with “ice. Stock solution was diluted to the appropriate working concentration in ESLC immediately before each application. […] To measure the effect of Ba^2+ on modification rates we pre-applied 10 mM Ba^2+ for 30 seconds prior to co-application of 10 mM Ba^2+ plus MTSEA.” for “ice.”

[3] = target: α7 AChR E^44C mutant (C^115A/L^247T background) (Gallus gallus, UniProt P22770, C138A/E67C/L270T); assay: as above
Description: as §2, §3, §4
as §1, with “ice. Stock solution was diluted to the appropriate working concentration in ESLC immediately before each application. […] To measure the effect of Ba^2+ on modification rates we pre-applied 10 mM Ba^2+ for 30 seconds prior to co-application of 10 mM Ba^2+ plus MTSEA.” for “ice.”

[4] = target: α7 AChR N^52C mutant (C^115A/L^247T background) (Gallus gallus, UniProt P22770, C138A/L270T/N75C); assay: as above
Description: as §2, §3, §4
as §1, with “ice. Stock solution was diluted to the appropriate working concentration in ESLC immediately before each application. […] To measure the effect of Ba^2+ on modification rates we pre-applied 10 mM Ba^2+ for 30 seconds prior to co-application of 10 mM Ba^2+ plus MTSEA.” for “ice.”

[5] = target: α7 C^115A/L^247T receptor (Gallus gallus, UniProt P22770, C138A/L270T); assay: as above
Description: as §2, §3, §4
as §1, with “ice. Stock solution was diluted to the appropriate working concentration in ESLC immediately before each application. […] To measure the effect of Ba^2+ on modification rates we pre-applied 10 mM Ba^2+ for 30 seconds prior to co-application of 10 mM Ba^2+ plus MTSEA.” for “ice.”

[6] = target: α7 AChR N^170C mutant (C^115A/L^247T background) (Gallus gallus, UniProt P22770, C138A/L270T/N193C); assay: as above; conditions: co-expression with human RIC-3
Description: as §2, §3, §4
as §1, with “ice. Stock solution was diluted to the appropriate working concentration in ESLC immediately before each application. […] To measure the effect of Ba^2+ on modification rates we pre-applied 10 mM Ba^2+ for 30 seconds prior to co-application of 10 mM Ba^2+ plus MTSEA.” for “ice.”

[7] = target: α7 AChR M^37C mutant (C^115A/L^247T background) (Gallus gallus, UniProt P22770, C138A/L270T/M60C); assay: as above
Description: as §2, §3, §4
as §1, with “ice. Stock solution was diluted to the appropriate working concentration in ESLC immediately before each application. […] To measure the effect of Ba^2+ on modification rates we pre-applied 10 mM Ba^2+ for 30 seconds prior to co-application of 10 mM Ba^2+ plus MTSEA.” for “ice.”

[8] = target: α7 AChR E^172C mutant (C^115A/L^247T background) (Gallus gallus, UniProt P22770, C138A/E195C/L270T); assay: as above; conditions: co-expression with human RIC-3
Description: as §2, §3, §4
as §1, with “ice. Stock solution was diluted to the appropriate working concentration in ESLC immediately before each application. […] To measure the effect of Ba^2+ on modification rates we pre-applied 10 mM Ba^2+ for 30 seconds prior to co-application of 10 mM Ba^2+ plus MTSEA.” for “ice.”

CC(=O)OCC[N+](C)(C)C [ACh, acetylcholine chloride]
ACh Imax [1]: 3.0 μA | ACh Imax [2]: 0.7 μA | ACh Imax [3]: 5.4 μA | Hill coefficient of ACh dose-response ([3]; + 10 mM BaCl2): 2.9 ± 0.7 | Hill coefficient of ACh dose-response ([3]; -Ba^2+): 1.7 ± 0.2 | ACh Imax [4]: 0.34 μA | ACh Imax [5]: 6.9 μA | Hill coefficient of ACh dose-response ([5]; + 10 mM BaCl2): 1.9 ± 0.4 | Hill coefficient of ACh dose-response ([5]; -Ba^2+): 2.5 ± 0.2 | ACh Imax [6]: 1.7 μA | ACh Imax [7]: 0.92 μA | ACh Imax [8]: 1.3 μA
